The values below come from EP3409671B1, “ISOTHIAZOLE DERIVATIVES AS GPR120 AGONISTS FOR THE TREATMENT OF TYPE II DIABETES” (Janssen Pharmaceutica NV, priority 2014, dated 2015).

The assay deals with T1, Human GPR120 short form (Homo sapiens, UniProt Q5NUL3).
T1 construct: expressed in transfected cells
T1 sequence (Q5NUL3 1-361): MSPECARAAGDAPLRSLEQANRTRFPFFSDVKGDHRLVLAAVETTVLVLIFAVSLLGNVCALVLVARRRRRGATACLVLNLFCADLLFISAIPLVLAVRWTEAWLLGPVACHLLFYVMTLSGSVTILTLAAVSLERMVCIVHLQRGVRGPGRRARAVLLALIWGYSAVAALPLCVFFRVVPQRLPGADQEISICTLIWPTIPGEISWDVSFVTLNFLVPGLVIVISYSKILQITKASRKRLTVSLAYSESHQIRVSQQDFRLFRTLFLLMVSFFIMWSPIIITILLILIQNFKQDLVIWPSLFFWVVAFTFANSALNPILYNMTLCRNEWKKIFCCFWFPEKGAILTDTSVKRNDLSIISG
Kind of assay: Human GPR120 Calcium Flux Assay, Procedure Calcium A. It is filed as cell-based. To be noted: HEK-293 cells expressing Human GPR120 short form, FLIPR, 2500 cells / well; read-out: GPR120 Ca^2+ Assay A EC50. An excerpt:
This in vitro assay serves to assess test compound agonist activity against the short splice variant (SVS with Accession number NM_001195755.1 confirmed by sequencing data) of the GPR120 receptor. The Human Short splice variant #2 (NM_001195755.1) is missing an in-frame coding exon compared to variant 1 (the Human Long splice variant NM_181745.3), resulting in a shorter isoform (GPR120-S) lacking a 16 aa protein segment compared to isoform GPR120-L. The assay platform utilizes HEK-293 cells stably transfected to express the Human GPR120 short form. These cells are first loaded with the Ca^+2 sensitive dye, Fluo-4 NW. Upon stimulation, intracellular released Ca^+2 can bind to the dye and alter its fluorescence intensity. This increase in fluorescence signal, and thus the flux in intracellular [Ca^2+], is detected and quantitated by fluorescence imaging using a FLIPR reader. The effect of the agonist is measured as a function of concentration and used to calculate an EC50 based upon a response curve.
In this procedure 2500 cells / well were employed.
A Human GPR120 clone (Genbank accession number NM _001195755.1) was placed into the pcDNA3.1 mammalian expression vector carrying the neomycin resistance gene. A stable mammalian cell was generated by placing the above clone into a HEK293 background. Clonal cells responding to long chain fatty acids had expression levels of GPR120 confirmed by RT-qPCR. Human HEK-GPR120 cells were cultured in Dulbecco's Modified Eagle's Medium (DMEM)/F12 medium supplemented with 10% fetal bovine serum (FBS), 1% L-Glutamine and 1% penicillin/streptomycin and 0.5 mg/ml G-418. Cells were split 2 times a week to keep the cells in the log-phase growth.
In preparation for the assay, HEK cells stably transfected with Human GPR120 (2.5K cells per well in 25uL growth medium) were seeded into 384-well plates and then incubated overnight (37°C, 5% CO2). The next day, the media was changed to 20 µL assay buffer and the cell starved for 1h at 37°C. […]
The assay was performed on a FLIPR plate reader using the following parameters. Baseline was read for 10 seconds at 1 sec intervals. The program was set to transfer 10µL of ligand from compound plate to cell plate after baseline reading. […] After compound addition, each well was read for 300 sec, with measurements collected at 1 sec intervals.
The kinetic data from the FLIPR was based upon a 5 minute window for data collection. The fluorescence of each sample well was used for individual calculations of a normalized RFU value, which was defined as maximum response minus the minimum response. The normalized fluorescence reading (RFU) was calculated as follows: RFU = Fmax−Fmin [formula] […]

For orientation: EC50 means the concentration at which the effect is half-maximal. In the case of `O=C(O)CCc1ccc(OCc2c(C(F)(F)F)nsc2-c2ccc(Cl)cc2)c(Cl)c1Cl` [Cpd 55, 3-(2,3-dichloro-4-[[5-(4-chlorophenyl)-3-(trifluoromethyl)-1,2-thiazol4-yl]methoxy]phenyl) propanoic acid], the 50% effective concentration (EC50) is 0.231 µM.

`O=C(O)CCc1cc(F)c(OCc2c(Cl)nsc2-c2ccc(Cl)cc2)c(F)c1` [Cpd 75, 3-(4-[[3-chloro-5-(4-chlorophenyl)-1,2-thiazol-4-yl]methoxy]-3,5-difluorophenyl)propanoic acid]: the EC50 is 0.042 µM.
